Results on 5 compounds are retold here after US5116822A, “Therapeutic application of dideoxycytidinene” (priority 1990, dated 1992).

The structures appear in SMILES notation. Where only a bound is given, the exact number is not on record here.

The test system of test [1] is HIV-infected ATH8 cells / human lymphoid cell lines. The note with it: compared with corresponding saturated derivatives; cited from earlier work.
Test [2] relates to HIV. The note with it: cited from earlier work.
Test [3] deals with vesicular stomatitis virus. In words: microbe, parasite or virus in culture. The note with it: read-out: 50% effective inhibitory dose (EID50). In kind it is cell-based.
The subject of test [4] is herpes simplex virus type 2. In words: Antiviral activity against other viruses. In kind it is cell-based. The note with it: Human alphaherpesvirus 2, HeLa, Vero or PRK cell cultures, read-out: 50% effective inhibitory dose (EID50).
In another test the test system is reovirus type 1. In words: Antiviral activity against other viruses. Format: cell-based. The note with it: Mammalian orthoreovirus 1, HeLa, Vero or PRK cell cultures, read-out: 50% effective inhibitory dose (EID50).
Test [5] concerns HIV. In words: microbe, parasite or virus in culture. In kind it is cell-based.
The subject of a further test is Coxsackie B4 virus. In words: Antiviral activity against other viruses. In kind it is cell-based. The note with it: Enterovirus B, HeLa, Vero or PRK cell cultures, read-out: 50% effective inhibitory dose (EID50).
The test system of a further test is FM3A cells. In words: Cytostatic effect (inhibition of cell proliferation). In kind it is cell-based, murine. The note with it: Mus musculus, read-out: IC50 (50%-inhibitory concentration, cell proliferation). The protocol:
(§1) The compounds ddeCyd and ddCyd were evaluated for their cytostatic effect against a series of murin and human cell lines. This was based upon measuring the inhibition of cell proliferation according to the procedures described by De Clercq et al. in Mol.Pharmacol. 19, 321-330 (1981).
(§2) The following cell lines were used: murine leukemia L1210 cells, designated L1210/0; murine mammary carcinoma FM3A cells; human B-lymphoblast Raji cells; human T-lymphoblast Molt/4F cells; human T4 -lymphocyte ATH8 cells and human T4 -lymphocyte MT-4 cells.

For the next test, the system named is L1210/0 cells. Described as above. Format: cell-based, murine. The note with it: Mus musculus, read-out: IC50 (50%-inhibitory concentration, cell proliferation). The protocol: as §1, §2
For test [6], the system named is herpes simplex virus type 1. In words: Antiviral activity against other viruses. In kind it is cell-based. The note with it: Human alphaherpesvirus 1, HeLa, Vero or PRK cell cultures, read-out: 50% effective inhibitory dose (EID50).
A further test deals with vaccinia virus. In words: microbe, parasite or virus in culture. Format: cell-based. The note with it: Orthopoxvirus vaccinia, read-out: 50% effective inhibitory dose (EID50).
A further test deals with Sindbis virus. In words: Antiviral activity against other viruses. In kind it is cell-based. The note with it: HeLa, Vero or PRK cell cultures, read-out: 50% effective inhibitory dose (EID50).
The test system of test [7] is HIV. In words: Protection against HIV replication in MT-4 cells. In kind it is cell-based. The note with it: for inhibition at 0.1 µM: Human immunodeficiency virus 1, MT4, 0.1 μM.
Test [8] has as its system parainfluenza virus type 3. In words: Antiviral activity against other viruses. The note with it: Human respirovirus 3, HeLa, Vero or PRK cell cultures, read-out: 50% effective inhibitory dose (EID50). Format: cell-based.
In the next test the test system is ATH8 cells. In words: Cytostatic effect (inhibition of cell proliferation). Format: cell-based. The note with it: Homo sapiens, ATH-8, read-out: IC50 (50%-inhibitory concentration, cell proliferation). The protocol: as §1, §2
In another test the test system is Raji cells. The description is as above. In kind it is cell-based. The note with it: Homo sapiens, read-out: IC50 (50%-inhibitory concentration, cell proliferation). The protocol:
as §1, §2

The subject of the next test is MT-4 cells. Described as above. The note with it: Homo sapiens, MT4, read-out: IC50 (50%-inhibitory concentration, cell proliferation). Format: cell-based. The protocol: as §1, §2
A further test concerns Molt/4F cells. The description is as above. Format: cell-based. The note with it: Homo sapiens, read-out: IC50 (50%-inhibitory concentration, cell proliferation). The protocol: as §1, §2
In test [9] the test system is DNA viruses and RNA viruses. In words: Antiviral activity against other viruses, overall statement. In kind it is cell-based. The note with it: in words.
The next test has as its system polio virus type 1. In words: organism not typed. Format: cell-based. The note with it: read-out: 50% effective inhibitory dose (EID50).
The subject of test [10] is HIV. In words: microbe, parasite or virus in culture. Format: cell-based. The note with it: for EC50: Human immunodeficiency virus 1, ATH-8, read-out: EID50 for inhibition of HIV cytopathogenicity. (In general: Damage to the host cells serves as the signal in cytopathic effect assays.)
For test [11], the system named is HIV. In words: microbe, parasite or virus in culture. Format: cell-based. The note with it: Human immunodeficiency virus 1, MT4, read-out: % Inhibition of viral antigen expression.

As for `Nc1ncnc2c1ncn2[C@H]1C=C[C@@H](CO)O1` [2',3'-unsaturated 2',3'-dideoxyadenosine], the “protection of HIV-infected ATH8 cells and/or cytostatic activity against human lymphoid cell lines” value in [1] is reported as “significantly less protective against HIV-infected ATH8 cells and/or considerably more cytostatic against human lymphoid cell lines”.
`Cc1cn([C@H]2C=C[C@@H](CO)O2)c(=O)[nH]c1=O` [2',3'-unsaturated 2',3'-dideoxythymidine]: the “protection of HIV-infected ATH8 cells and/or cytostatic activity against human lymphoid cell lines” value in [1] is on record as “significantly less protective against HIV-infected ATH8 cells and/or considerably more cytostatic against human lymphoid cell lines”.
Consider `Cc1cn([C@H]2C[C@H](N=[N+]=[N-])[C@@H](CO)O2)c(=O)[nH]c1=O` [azidothymidine, 3'-azido-2',2'-dideoxythymidine], for which the “inhibition of HIV replication” value with HIV [2] (lymphocyte cultures) was “potent inhibitor of HIV replication”.
As for `Nc1ccn([C@H]2CC[C@@H](CO)O2)c(=O)n1` [ddCyd, 2',3'-dideoxycytidine, reference compound], the EC50 (in test [3]; in test [4]; with reovirus type 1; with Coxsackie B4 virus; in [6]; in the test with vaccinia virus) was greater than 100 µM each time. For the same compound, the EC50 in the test on Sindbis virus was greater than 100 µM; in test [8], greater than 100 µM; in the test with polio virus type 1 it was greater than 100 µM; in the test with HIV [10] it was 0.1 to 0.3 µM. Moreover, the “antiviral potency upon prolonged exposure” value in the test on HIV [5] is reported as “without decrease upon prolonged exposure”. In the test on HIV [5] (0.5 μM, ATH8 cells, no decrease upon prolonged exposure), the “protection of ATH8 cells” value is given as “completely protected”. For the same compound, the inhibition at 0.1 µM in the test with HIV [5] (Human immunodeficiency virus 1, ATH-8, 0.1 μM, ATH8 cells, no decrease upon prolonged exposure, read-out: protection against HIV replication in ATH8 cells) worked out at 75%; in the test on HIV [7], 75%; in the test on HIV [11] it was 70%. Also, the IC50 in the test with FM3A cells is greater than 2370 µM; in the test on L1210/0 cells it was 320 µM; with ATH8 cells it was 35 µM; in the test on Raji cells, 12 µM; with MT-4 cells it was 35 µM; with Molt/4F cells, 17 µM. For the same compound, the “concentration effecting complete antiviral protection” value with HIV [2] (in vitro) was 0.5 to 1.0 µM. For the same compound, the “protection of MT-4 cells” value with HIV [7] (0.5 μM, in words) is recorded as “completely protected”. In test [9], the “antiviral effect against other (non-oncogenic RNA and DNA) viruses” value is reported as “neither ddeCyd nor ddCyd demonstrated any significant antiviral effect”. Moreover, in the test with HIV [11], the inhibition at 0.5 µM amounted to 96%. Also, the inhibition at 2 µM in the test with HIV [11] came to 97%. Also, the inhibition at 5 µM in the test with HIV [11] stood at 97%. For the same compound, the inhibition at 20 µM with HIV [11] worked out at 96%.
With `Nc1ccn([C@H]2C=C[C@@H](CO)O2)c(=O)n1` [ddeCyd, 2',3'-didehydro-2'-3'-dideoxycytidine], the EC50 (in test [3]; in test [4]; in the test with reovirus type 1; in the test with Coxsackie B4 virus; in [6]; with vaccinia virus) was greater than 100 µM each time. In addition, the EC50 in the test on Sindbis virus is greater than 100 µM; in test [8], greater than 100 µM; with polio virus type 1, greater than 100 µM; with HIV [10], 0.1 to 0.3 µM. The “antiviral potency upon prolonged exposure” value in the test on HIV [5] was “decrease in antiviral potency”. For the same compound, the “protection of cells against destruction by the virus” value with HIV [5] is given as “almost complete protection”. The “protective effect at a longer time interval” value with HIV [5] (10 days (vs 7 days), ATH8 cells) is listed as “somewhat lower”. The inhibition at 0.1 µM is roughly 40% with HIV [5] (Human immunodeficiency virus 1, ATH-8, 168 h, read-out: protection of cells against destruction by the virus); 28% in the test with HIV [7]; 20% in the test on HIV [11]. Moreover, in the test on HIV [5] (Human immunodeficiency virus 1, ATH-8, 240 h, 10 days, ATH8 cells, read-out: concentration for optimum protection), the EC (optimum protection) is roughly 2 µM. In addition, the IC50 was found to be 1160 µM with FM3A cells; 196 µM in the test on L1210/0 cells; 30 µM in the test on ATH8 cells; 13 µM with Raji cells; 15 µM in the test on MT-4 cells; 20 µM in the test on Molt/4F cells. The inhibition at 0.5 µM in the test with HIV [7] (Human immunodeficiency virus 1, MT4, 0.5 μM) worked out at 91%; in the test on HIV [11] it was 85%. The “antiviral effect against other (non-oncogenic RNA and DNA) viruses” value in test [9] is “neither ddeCyd nor ddCyd demonstrated any significant antiviral effect”; in test [9] (listed as 2',3'-dideoxycytidinene), “not show any inhibitory effect”. Further, the “effectiveness in inhibiting cytopathogenicity and antigen expression of HIV” value in the test with HIV [10] (ATH 8 and MT-4 cells, compared with 2',3'-dideoxycytidine) was “almost as effective as 2',3'-dideoxycytidine”. The “fold by which HIV-inhibiting concentrations are below any toxicity for the host cells” value with HIV [10] (T-cells) is recorded as “at least 100 fold”. The “inhibition of human immunodeficiency virus in cell cultures” value in the test on HIV [10] (in words) was “potent and selective inhibitor of human immunodeficiency virus in cell cultures”. Moreover, in the test with HIV [11] (0.02 μM), the inhibition at 0.02 µM came to 8%. Also, the inhibition at 2 µM with HIV [11] came to 98%. Besides, the inhibition at 5 µM in the test with HIV [11] came to 98%. The inhibition at 20 µM with HIV [11] was 96%.
